Measured values from US20220395553A1, “CXCR4 ANTAGONIST PEPTIDES” (COHBAR, INC., priority 2019, published 2022).
Square brackets hold non-standard residues; d marks the D form. Peptide text beside a SMILES is read from it.

Assays:
U937 cells = test: CXCL12 mediated cell migration, U937 cells; assay type: cell-based, human; details: peptides at 10 μM (also stated 1 μM), 100 nM CXCL12, 4 hours
Protocol: Peptides were initially prepared as 1 mM stock in H2O and tested at a final concentration of 1 μM. […] U937 cells were resuspended in serum free media containing 0.5% bovine serum albumin (RPMI+GlutaMax (Gibco/Thermo Fisher Scientific, Gaithersburg, Md.)) at density of 5×10^6 cells/ml. […] Following the 4 hour incubation period the filter inserts were carefully removed and the migration of cells across the filter into the bottom chamber (receiver wells) was determined by measuring ATP levels using Cell TiterGlo 2.0, according to manufacturer's instructions (Promega, Madison, Wis.); luminescence measured using a Cytation 3 plate reader (BioTek, Winooski, Vt.).

[1] = tested on: CXCR4/CXCL12 induced p-MEK; test: CXCR4/CXCL12 induced p-MEK in Jurkat cells (ELISA); assay type: cell-based, human; details: 5 nM CXCL12, 5 min
Outline: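 Jurkat cells in RPMI+GlutaMax containing 10% FBS and 1% penicillin/streptomycin, fresh or conditioned, were resuspended at 2×10^6 cells/ml and […] aliquots placed in tubes. After a 5 min stimulation they were pelleted, rinsed with HBSS and lysed with PMSF and protease/phosphatase inhibitors. Phospho-MEK1 (Ser217/221) was quantified by sandwich ELISA with absorbance read at 450 nm.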

[2] = Cell viability, PrestoBlue assay; assay type: cell-based; details: human
Protocol: The effect of the peptides on cell viability can be assessed in cultured cells using suitable assay of viability such as the PrestoBlue® assay (Thermo Fisher Scientific, Waltham, Mass.). Peptides were initially prepared as 10 mM stock in DMSO and tested at a final concentration of 10 μM (0.1% DMSO). […] PrestoBlue Assay Reagent was purchased from Thermo Fisher Scientific. A172 human brain glioblastoma cell line was purchased from American Type Culture Collection (Manassas, Va.). A172 cells were grown in DMEM supplemented with 10% FBS with 100 IU/ml penicillin and 100 μg/ml streptomycin. Cultures were maintained at 37° C. in a humidified atmosphere of 5% CO2/95% air. A172 cells were seeded at 8,000 cells per well on 96-well plates. […] Cell viability was determined using a PrestoBlue Assay reagent […] according to the manufacturer's instructions. Absorption for each sample well on the plate was measured using a Cytation 3 plate reader at 560 nm and 590 nm (BioTek, Winooski, Vt.). Activity was calculated relative to 0.1% DMSO untreated control. Treatment with 0.1% DMSO alone was used as the cell viability activity control. The relative standard deviation of the DMSO control was <5%.

[3] = tested on: A172 human brain glioblastoma cell line; test: Caspase 3/7 activity (Caspase-Glo 3/7) in cultured cells; assay type: cell-based; details: peptide 10 μM, 18-20 hours, relative to 0.1% DMSO control
Protocol: The effect of the peptides on cell death/survival can be assessed using a caspase-3/7 assay in cultured cells. Peptides were dissolved at 10 mM in DMSO as stock solutions for use at a final concentration of 10 μM. […] Caspase-Glo 3/7 Assay Reagent was purchased from Promega (Madison, Wis.). A172 human brain glioblastoma cell line was purchased from American Type Culture Collection (Manassas, Va.). A172 cells were grown in DMEM supplemented with 10% FBS with 100 IU/ml penicillin and 100 μg/ml streptomycin. Cultures were maintained at 37° C. in a humidified atmosphere of 5% CO2/95% air. A172 cells were seeded at 8,000 cells per well on 96-well plates. […] Caspase 3/7 activity was determined using a Caspase-Glo 3/7 Assay kit (Promega) according to the manufacturer's instructions. Luminescence for each sample well on the plate was measured using a Cytation 3 plate reader (BioTek, Winooski, Vt.). Activity was calculated relative to 0.1% DMSO control.

Rat H-4-II-E Cells = test: Cell proliferation, BrdU incorporation; assay type: cell-based; details: peptide 10 μM, 18-20 hours, relative to 0.1% DMSO control
Protocol: The effect of the peptides on cell proliferation can be assessed using an assay of BrdU incorporation in cultured cells. Peptides were initially prepared as 10 mM stock in DMSO and tested at a final concentration of 10 μM (0.1% DMSO). BrdU Cell Proliferation Assay kit was purchased from Cell Signaling Technology. H-4-II-E rat liver hepatoma cell line was purchased from American Type Culture Collection (Manassas, Va.). H-4-II-E cells were grown in DMEM supplemented with 10% FBS with 100 IU/ml penicillin and 100 μg/ml streptomycin. Cultures were maintained at 37° C. in a humidified atmosphere of 5% CO2/95% air. H-4-II-E cells were seeded at 20,000 cells per well on 96-well plates. The next day cells were incubated with test peptides at 10 μM in 0.1% DMSO and maintained at 37° C. in a humidified atmosphere of 5% CO2/95% air for 18-20 hours. Cell proliferation was determined using a BrdU Cell Proliferation Assay kit (Cell Signaling Technology) according to the manufacturer's instructions. Absorption for each sample well on the plate was measured using a Cytation 3 plate reader at 450 nm (BioTek, Winooski, Vt.). Activity was calculated relative to 0.1% DMSO untreated control.

| Structure (SMILES) | Percent Inhibition of CXCL12 Mediated Migration (U937 cells) [%] | Percent Inhibition of CXCR4/CXCL12 Induced p-MEK (100 nM Test Article) [1] [%] | Percent Inhibition of CXCR4/CXCL12 Induced p-MEK (1 μM Test Article) [1] [%] | viability at 10 μM [2] [%] | Caspase 3/7 Activity, Percent of Control Activity [3] [%] | BrdU Incorporation, Percent of Control (Rat H-4-II-E Cells) [%] |
| --- | --- | --- | --- | --- | --- | --- |
| CC(C)C[C@H](NC(=O)[C@H](CO)NC(=O)[C@H](CO)NC(=O)[C@H](CCCNC(=N)N)NC(=O)[C@@H](C)NC(=O)[C@H](CO)NC(=O)[C@H](Cc1c[nH]cn1)NC(=O)[C@H](Cc1c[nH]cn1)NC(=O)[C@H](Cc1ccc(O)cc1)NC(=O)[C@H](CCCNC(=N)N)NC(=O)[C@H](CCC(=O)O)NC(=O)[C@@H](N)CC(C)C)C(=O)N[C@@H](CCCNC(=N)N)C(=O)N1CCC[C@H]1C(=O)N[C@@H](Cc1ccc(O)cc1)C(=O)N[C@H](C(=O)O)[C@@H](C)O [compound 5] (H-LERYHHS[dA]RSSLRPYT-OH; N-terminus and C-terminus assumed) | 86 | −20 | 24 | 98.8 | 104.7 | 131.1 |
| CSCC[C@H](N)C(=O)N[C@@H](CC(C)C)C(=O)N[C@@H](CCCNC(=N)N)C(=O)N[C@@H](CCCNC(=N)N)C(=O)N[C@@H](Cc1ccc(O)cc1)C(=O)N[C@@H](Cc1c[nH]cn1)C(=O)N[C@@H](Cc1c[nH]cn1)C(=O)N[C@@H](CO)C(=O)N[C@H](C(=O)N[C@@H](CCCNC(=N)N)C(=O)N[C@@H](CO)C(=O)N[C@@H](CO)C(=O)N[C@@H](CC(C)C)C(=O)N[C@@H](CCCNC(=N)N)C(=O)N1CCC[C@H]1C(=O)N[C@@H](Cc1ccc(O)cc1)C(=O)N[C@H](C(=O)N[C@@H](CCCCN)C(=O)O)[C@@H](C)O)C(C)C [compound 2] (H-MLRRYHHSVRSSLRPYTK-OH; N-terminus and C-terminus assumed) | 58 | −1 | 28 | 96.4 | 96.7 | 123.6 |
| CC(C)C[C@H](NC(=O)[C@H](CO)NC(=O)[C@H](CO)NC(=O)[C@H](CCCNC(=N)N)NC(=O)[C@@H](NC(=O)[C@H](CO)NC(=O)[C@H](Cc1c[nH]cn1)NC(=O)[C@H](Cc1c[nH]cn1)NC(=O)[C@H](Cc1ccc(O)cc1)NC(=O)[C@H](CCCNC(=N)N)NC(=O)[C@H](CCCNC(=N)N)NC(=O)[C@@H](N)CC(C)C)C(C)C)C(=O)N[C@@H](CCCNC(=N)N)C(=O)N1CCC[C@H]1C(=O)N[C@@H](Cc1ccc(O)cc1)C(=O)N[C@H](C(=O)N[C@@H](CCCCN)C(=O)O)[C@@H](C)O [compound 3] (H-LRRYHHSVRSSLRPYTK-OH; N-terminus and C-terminus assumed) | 101 | 29 | 91 | 97.3 | 121.4 | 130.3 |
| CC(C)C[C@H](NC(=O)[C@H](CO)NC(=O)[C@H](CO)NC(=O)[C@H](CCCNC(=N)N)NC(=O)[C@@H](NC(=O)[C@H](CO)NC(=O)[C@H](Cc1c[nH]cn1)NC(=O)[C@H](Cc1c[nH]cn1)NC(=O)[C@H](Cc1ccc(O)cc1)NC(=O)[C@H](CCCNC(=N)N)NC(=O)[C@H](CCC(=O)O)NC(=O)[C@@H](N)CC(C)C)C(C)C)C(=O)N[C@@H](CCCNC(=N)N)C(=O)N1CCC[C@H]1C(=O)N[C@@H](Cc1ccc(O)cc1)C(=O)N[C@H](C(=O)N[C@@H](CCCCN)C(=O)O)[C@@H](C)O [compound 4] (H-LERYHHSVRSSLRPYTK-OH; N-terminus and C-terminus assumed) | 98 | 40 | 76 | 96 | 107.7 | 114.4 |
